Results on two compounds are retold here after patent US6245765A, “Mesylate dihydrate salts of 5-(2-(4-(1,2-benzisothiazol-3-yl)-1-piperazinyl)-ethyl)-6-chloro-1,3-dihyd ro-2(1H)-indol-2-one (=ziprasidone), its preparation and its use as dopamine D2 antagonist” (Pfizer Inc, priority 1999, dated 2001).

Data set [1] in a line: Aqueous solubility (solubility in water). The format is physicochemical.
For data set [2] the following is noted: as stated in U.S. Pat. No. 5,312,925; cited from earlier work.

Where a name gives a salt, the structure may show the parent alone.

Turning to `O=C1Cc2cc(CCN3CCN(c4nsc5ccccc45)CC3)c(Cl)cc2N1` [dihydrate (needle), 5-[2-[4-(1,2-benzisothiazol-3-yl)-1-piperazinyl]ethyl]-6-chloro-1,3-dihydro-2H-indol-2-one Methanesulfonate Dihydrate (Needle Crystals)], the “SOLUBILITY IN WATER” value in data set [1] (aqueous solubility of ziprasidone mesylate polymorphs, water) is recorded as 1.10 mg/mL.
Take `O=C1Cc2cc(CCN3CCN(c4nsc5ccccc45)CC3)c(Cl)cc2N1` [ziprasidone hydrochloride monohydrate]: the “aqueous solubility (in words)” value in data set [1] (qualitative statement, dihydrates compared with ziprasidone hydrochloride monohydrate) is “low aqueous solubility”. Also, in data set [2], the “hygroscopic stability (in words)” value is listed as “substantially hygroscopically stable”.
